Results from ChEMBL document CHEMBL1201862, “PubChem BioAssay data set” (2004).
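A five-concentration, 48-hour dose response in 96-well plates underlies each endpoint, interpolated linearly between surrounding concentrations. Here, GI50 denotes the concentration required for 50% inhibition of growth.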 Activity calls are given as the source filed them. Rule as the data show it: active = GI50 up to about 1.1 µM and inactive = higher.

Assays:
Assay in all cases: DTP human tumour cell line panel, 48 h
SNB-19 = system: SNB-19
Malme-3M = system: Malme-3M
ACHN = system: ACHN
NCI-H522 = system: NCI-H522
HOP-62 = system: HOP-62
RPMI-8226 = system: RPMI-8226
SNB-75 = system: SNB-75
HT-29 = system: HT-29
SK-OV-3 = system: SK-OV-3
SF-539 = system: SF-539
NCI-H23 = system: NCI-H23
SF-295 = system: SF-295
K562 = system: K562
IGROV-1 = system: IGROV-1
UO-31 = system: UO-31
M14 = system: M14
SN12C = system: SN12C
CAKI-1 = system: CAKI-1
OVCAR-4 = system: OVCAR-4
BT-549 = system: BT-549

Measured: GI50

CCc1cccc(C(C)C)c1N1C(=O)C(=O)C(c2nc3ccccc3s2)C(=O)C1=O
inactive: SNB-19 > 50 µM | Malme-3M > 26.2 µM | ACHN > 50 µM | NCI-H522 17.7 µM | HOP-62 > 50 µM | RPMI-8226 18.3 µM | SNB-75 > 50 µM | HT-29 > 30.6 µM | SK-OV-3 > 50 µM | SF-539 > 50 µM | NCI-H23 27.9 µM | SF-295 > 39.4 µM | K562 16.3 µM | IGROV-1 > 50 µM | UO-31 > 50 µM | M14 > 44.4 µM | SN12C > 50 µM | CAKI-1 > 50 µM | OVCAR-4 > 50 µM

O=C(Nc1ccc(Sc2ccc(/N=N/c3c(O)c(S(=O)(=O)O)cc4cc(S(=O)(=O)O)ccc34)cc2)cc1)c1ccc(/N=N/c2c(O)c(S(=O)(=O)O)cc3cc(S(=O)(=O)O)ccc23)cc1
inactive: SNB-19 48.3 µM | Malme-3M 15.5 µM | ACHN 29.9 µM | NCI-H522 12.2 µM | HOP-62 88.1 µM | RPMI-8226 5.53 µM | SNB-75 > 100 µM | HT-29 32.1 µM | SK-OV-3 > 100 µM | SF-539 45.8 µM | NCI-H23 12.2 µM | SF-295 22.3 µM | K562 19.4 µM | IGROV-1 35.6 µM | UO-31 35.6 µM | M14 24.9 µM | SN12C 26.9 µM | CAKI-1 37.4 µM | OVCAR-4 24.1 µM

Cc1cn2cc(-c3ccncc3)nc2s1
inactive: SNB-19 > 100 µM | Malme-3M > 100 µM | ACHN > 100 µM | NCI-H522 > 100 µM | HOP-62 > 100 µM | RPMI-8226 > 47.2 µM | SNB-75 > 100 µM | HT-29 > 100 µM | SK-OV-3 > 100 µM | SF-539 > 100 µM | NCI-H23 > 100 µM | SF-295 > 100 µM | K562 > 51.8 µM | IGROV-1 > 100 µM | UO-31 > 100 µM | M14 > 100 µM | SN12C > 100 µM | CAKI-1 > 100 µM | OVCAR-4 > 82 µM

CC(=O)/C(=C/NC(=S)N/N=C1\C(=O)Nc2ccccc21)C(=O)Nc1ccccc1C
inactive: SNB-19 > 100 µM | ACHN 96.2 µM | HOP-62 > 100 µM | SNB-75 52.4 µM | HT-29 > 100 µM | SK-OV-3 > 100 µM | BT-549 > 100 µM | SF-539 > 100 µM | NCI-H23 > 100 µM | SF-295 > 100 µM | IGROV-1 95.3 µM | UO-31 44.3 µM | M14 > 100 µM | SN12C > 100 µM | CAKI-1 47.4 µM | OVCAR-4 > 100 µM

CO/N=C(/C(=O)OC)c1ccccc1COc1cccc(C(F)(F)F)c1
inactive: SNB-19 71.4 µM | Malme-3M 2.3 µM | ACHN 33.3 µM | NCI-H522 20 µM | HOP-62 21.2 µM | RPMI-8226 6.18 µM | SNB-75 31.7 µM | HT-29 46.9 µM | SK-OV-3 38.9 µM | SF-539 54.1 µM | NCI-H23 27.9 µM | SF-295 7.23 µM | K562 18.5 µM | IGROV-1 30.2 µM | UO-31 39.8 µM | M14 24.6 µM | SN12C 43.9 µM | CAKI-1 12.1 µM | OVCAR-4 19.5 µM

CCOc1ncn(-c2ccc(NC(=S)Nc3cnccn3)cc2)n1
inactive: SNB-19 > 10 µM | Malme-3M > 10 µM | ACHN > 10 µM | NCI-H522 > 10 µM | SNB-75 > 10 µM | HT-29 > 10 µM | SK-OV-3 > 10 µM | BT-549 > 10 µM | SF-539 > 10 µM | NCI-H23 > 10 µM | SF-295 > 10 µM | K562 > 10 µM | IGROV-1 > 10 µM | UO-31 > 10 µM | M14 > 10 µM | SN12C > 10 µM | OVCAR-4 > 10 µM

COC(=O)CC[N+]1=CCC(c2ccccc2)(c2ccccc2)O1
inactive: SNB-19 > 100 µM | ACHN > 100 µM | NCI-H522 > 100 µM | HOP-62 > 100 µM | HT-29 > 100 µM | SK-OV-3 > 100 µM | BT-549 > 100 µM | SF-539 > 100 µM | NCI-H23 > 100 µM | SF-295 > 100 µM | K562 > 100 µM | IGROV-1 > 100 µM | UO-31 > 100 µM | M14 > 100 µM | SN12C > 100 µM | CAKI-1 > 100 µM | OVCAR-4 > 100 µM

Cc1ccc(NCCO)cc1
inactive: SNB-19 > 100 µM | Malme-3M > 100 µM | ACHN > 100 µM | NCI-H522 > 100 µM | HOP-62 > 100 µM | RPMI-8226 > 100 µM | SNB-75 > 100 µM | HT-29 > 100 µM | SK-OV-3 > 100 µM | SF-539 > 100 µM | NCI-H23 > 100 µM | SF-295 > 100 µM | K562 55 µM | IGROV-1 > 100 µM | UO-31 > 100 µM | M14 > 100 µM | SN12C > 100 µM | CAKI-1 > 100 µM | OVCAR-4 > 100 µM

c1ccc2c(c1)nnn1c3cnccc3nc21
inactive: SNB-19 47.6 µM | Malme-3M > 100 µM | ACHN 30.2 µM | NCI-H522 13.9 µM | HOP-62 40.2 µM | RPMI-8226 18.5 µM | SNB-75 25.4 µM | HT-29 28.2 µM | SK-OV-3 42.2 µM | SF-539 35.4 µM | NCI-H23 37.8 µM | SF-295 77.1 µM | K562 21.6 µM | IGROV-1 36.4 µM | UO-31 38.9 µM | M14 91 µM | SN12C 32.4 µM | CAKI-1 28.6 µM | OVCAR-4 29 µM

Cc1cc(N(CCC#N)CCC#N)ccc1/C=C1N=C(/C=C\c2ccccc2)OC\1=O
inactive: SNB-19 > 100 µM | Malme-3M > 100 µM | ACHN > 100 µM | NCI-H522 > 100 µM | HOP-62 > 100 µM | RPMI-8226 > 100 µM | SNB-75 > 100 µM | HT-29 > 100 µM | SK-OV-3 > 100 µM | SF-539 > 100 µM | NCI-H23 > 100 µM | SF-295 > 100 µM | K562 > 100 µM | IGROV-1 > 100 µM | UO-31 > 100 µM | M14 > 100 µM | SN12C > 100 µM | CAKI-1 > 100 µM | OVCAR-4 > 100 µM

O=C(O)c1ccc(Nc2nc3cc(C(F)(F)F)ccc3nc2C(=O)O)cc1
inactive: SNB-19 > 100 µM | Malme-3M > 100 µM | ACHN > 100 µM | NCI-H522 > 100 µM | HOP-62 > 100 µM | SNB-75 > 100 µM | HT-29 > 100 µM | BT-549 > 100 µM | NCI-H23 > 100 µM | SF-295 > 100 µM | K562 > 100 µM | IGROV-1 > 100 µM | UO-31 > 100 µM | SN12C > 100 µM | CAKI-1 > 100 µM | OVCAR-4 > 100 µM

O=C(Cc1nc2ccc([N+](=O)[O-])cc2nc1O)C(=O)Nc1cc(Cl)c(Cl)cc1Cl
inactive: SNB-19 > 100 µM | Malme-3M > 100 µM | ACHN > 100 µM | NCI-H522 > 100 µM | HOP-62 > 100 µM | SNB-75 > 100 µM | HT-29 > 100 µM | SK-OV-3 71.3 µM | BT-549 > 100 µM | SF-539 > 100 µM | NCI-H23 > 100 µM | SF-295 > 100 µM | IGROV-1 > 100 µM | UO-31 > 100 µM | M14 > 100 µM | SN12C > 100 µM | CAKI-1 > 100 µM | OVCAR-4 > 100 µM

Cc1c(C(=O)/C=C/c2ccccc2[N+](=O)[O-])[n+]([O-])c2ccccc2[n+]1[O-]
inactive: SNB-19 19.1 µM | Malme-3M 13.3 µM | ACHN 10.6 µM | NCI-H522 3.94 µM | HOP-62 18.2 µM | RPMI-8226 2.96 µM | SNB-75 13.2 µM | HT-29 8.57 µM | SK-OV-3 17.9 µM | SF-539 3.78 µM | NCI-H23 4.63 µM | SF-295 7.5 µM | K562 3.39 µM | IGROV-1 10.6 µM | UO-31 18.8 µM | M14 11 µM | SN12C 6 µM | CAKI-1 3.61 µM | OVCAR-4 9.64 µM

C/C(=C\CNc1ncnc2c1ncn2CCC(=O)OC(C)(C)C)CO
inactive: SNB-19 > 100 µM | Malme-3M > 100 µM | ACHN > 100 µM | NCI-H522 > 100 µM | HOP-62 > 100 µM | RPMI-8226 > 100 µM | SNB-75 > 100 µM | HT-29 > 100 µM | SK-OV-3 > 100 µM | SF-539 > 100 µM | NCI-H23 > 100 µM | SF-295 > 100 µM | K562 > 100 µM | IGROV-1 > 100 µM | UO-31 > 100 µM | M14 > 100 µM | SN12C > 100 µM | CAKI-1 > 100 µM | OVCAR-4 > 100 µM

O=C(N/C(=C\c1cc(Cl)ccc1Cl)c1nc2c(O)nc(S)nc2[nH]1)c1ccccc1
inactive: SNB-19 > 55.2 µM | Malme-3M > 90.2 µM | ACHN 37.1 µM | NCI-H522 38 µM | HOP-62 > 100 µM | RPMI-8226 12.6 µM | SNB-75 34.2 µM | HT-29 20.8 µM | SK-OV-3 98.2 µM | SF-539 27.7 µM | NCI-H23 25.8 µM | SF-295 37.4 µM | K562 7.43 µM | IGROV-1 > 42.4 µM | UO-31 23.6 µM | M14 22.9 µM | SN12C 30.1 µM | CAKI-1 38.5 µM | OVCAR-4 39.9 µM
